Data reported in patent US9303045B2, “5-HT3 receptor antagonists” (Takeda Pharmaceutical Company Limited, priority 2013, dated 2016).
Counter-ions that a name gives are not always drawn.

These molecules were tested against 5HT3a receptor expressed in HEK-293T cells (Homo sapiens (Human), UniProt P46098) (assay: Inhibition of Ca flux activity of 5HT3 in vitro assay). Conditions: calcium flux, 5HT 216 nM, approximate values.
Assay type: cell-based
Outline: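 HEK-293T cells transiently transfected with human 5HT3a, loaded 1 hour at 37° C with calcium dye in HBSS/20 mM HEPES, preincubated with compound (10^−7 to 10^−10, half-log) 10 minutes at room temperature.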

Sequence of 5HT3a receptor expressed in HEK-293T cells (P46098 24-478): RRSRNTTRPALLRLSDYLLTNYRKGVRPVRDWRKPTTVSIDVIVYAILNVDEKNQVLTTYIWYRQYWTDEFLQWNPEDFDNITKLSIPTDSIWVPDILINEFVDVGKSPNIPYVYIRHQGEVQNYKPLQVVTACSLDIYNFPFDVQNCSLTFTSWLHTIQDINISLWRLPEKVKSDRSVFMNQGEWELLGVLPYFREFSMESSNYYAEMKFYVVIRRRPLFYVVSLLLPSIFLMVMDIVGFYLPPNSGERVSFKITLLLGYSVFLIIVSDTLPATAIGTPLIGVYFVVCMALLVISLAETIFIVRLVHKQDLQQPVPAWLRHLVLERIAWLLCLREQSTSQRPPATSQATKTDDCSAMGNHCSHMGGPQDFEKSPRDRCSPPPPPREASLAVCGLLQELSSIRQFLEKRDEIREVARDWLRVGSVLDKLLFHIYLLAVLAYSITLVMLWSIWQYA

First: CN1[C@@H]2COC[C@H]1C[C@@H](NC(=O)c1cn(-c3cnccn3)c3ccccc13)C2 [Example 129, N-((1R,5S,7S)-9-methyl-3-oxa-9-azabicyclo[3.3.1]nonan-7-yl)-1-(pyrazin-2-yl)-1H-indole-3-carboxamide, di-2,2,2-trifluoroacetate]
Second: (1R,3R,5S)-8-methyl-8-azabicyclo[3.2.1]octan-3-yl 2-chloro-1-(methylsulfonyl)-1H-indole-3-carboxylate 2,2,2-trifluoroacetate [Example 6]
The IC50 of the first is 3.6-fold lower: 0.64 nM for the first, 2.33 nM for the second. The first is the more potent here.

Compared with CC(C)S(=O)(=O)n1cc(C(=O)O[C@H]2C[C@H]3COC[C@@H](C2)N3)c2ccccc21 [Example 131, (1R,5S,7S)-3-oxa-9-azabicyclo[3.3.1]nonan-7-yl 1-(isopropylsulfonyl)-1H-indole-3-carboxylate, 2,2,2-trifluoroacetate], CN1[C@@H]2CC[C@H]1CC(NC(=O)c1cn(CC(F)F)c3ncccc13)C2 (stereo partly drawn) [Example 76, 1-(2,2-difluoroethyl)-N-((1R,3R,5S)-8-methyl-8-azabicyclo[3.2.1]octan-3-yl)-1H-pyrrolo[2,3-b]pyridine-3-carboxamide, 2,2,2-trifluoroacetate] is 1.6-fold lower in IC50: 1.93 nM for the first, 1.22 nM for the second. The second is the more potent here.

Going from “(1R,5S,7S)-9-methyl-3-oxa-9-azabicyclo[3.3.1]nonan-7-yl 1-(5-fluoropyrazin-2-yl)-1H-indole-3-carboxylate, 2,2,2-trifluoroacetic acid salt [Example 33]” to CN1C2CCC1CC(OC(=O)c1cn(CC(F)F)c3ccccc13)C2 [Example 40, (1R,3R,5S)-8-methyl-8-azabicyclo[3.2.1]octan-3-yl 1-(2,2-difluoroethyl)-1H-indole-3-carboxylate, 2,2,2-trifluoroacetate], the IC50 falls from 14.4 nM to 0.78 nM (18-fold).

First: Cn1ccc(-n2cc(C(=O)O[C@H]3C[C@H]4COC[C@@H](C3)N4)c3ccccc32)cc1=O [Example 168, 1R,5S,7s)-3-oxa-9-azabicyclo[3.3.1]nonan-7-yl 1-(1-methyl-2-oxo-1,2-dihydropyridin-4-yl)-1H-indole-3-carboxylate, 2,2,2-trifluoroacetic acid salt]
Second: 5-fluoro-N-((1R,5S,7S)-9-methyl-d3-3-oxa-9-azabicyclo[3.3.1]nonan-7-yl)-1-(2,2,2-trifluoroethyl)-1H-pyrrolo[2,3-b]pyridine-3-carboxamide 2,2,2-trifluoroacetate [Example 18]
The IC50 of the first is 3.5-fold lower: 1.17 nM for the first, 4.06 nM for the second.

First: O=C(OC1CC2COCC(C1)N2)c1cn(CC(F)(F)F)c2ccc(F)cc12 [Example 59, (1R,5S,7S)-3-oxa-9-azabicyclo[3.3.1]nonan-7-yl 5-fluoro-1-(2,2,2-trifluoroethyl)-1H-indole-3-carboxylate, 2,2,2-trifluoroacetate]
Second: CN1[C@@H]2COC[C@H]1CC(NC(=O)c1cn(CC(C)(F)F)c3ncccc13)C2 (stereo partly drawn) [Example 108, 1-(2,2-difluoropropyl)-N-((1R,5S,7S)-9-methyl-3-oxa-9-azabicyclo[3.3.1]nonan-7-yl)-1H-pyrrolo[2,3-b]pyridine-3-carboxamide, 2,2,2-trifluoroacetate]
The IC50 of the first is 2.2-fold higher: 2.36 nM for the first, 1.05 nM for the second.

First: CN1C2COCC1CC(NC(=O)c1cn(CC#N)c3ccccc13)C2 [Example 159, 1-(cyanomethyl)-N-((1R,5S,7s)-9-methyl-3-oxa-9-azabicyclo[3.3.1]nonan-7-yl)-1H-indole-3-carboxamide, 2,2,2-trifluoroacetic acid salt]
Second: O=C(OC1C[C@H]2COC[C@@H](C1)N2)c1cn(CC(F)F)c2ccc(F)cc12 (stereo partly drawn) [Example 31, (1R,5S,7S)-3-oxa-9-azabicyclo[3.3.1]nonan-7-yl 1-(2,2-difluoroethyl)-5-fluoro-1H-indole-3-carboxylate, 2,2,2-trifluoroacetate]
The IC50 of the first is 4.3-fold lower: 0.298 nM for the first, 1.29 nM for the second.

O=C(OC1C[C@H]2CC[C@@H](C1)N2)c1cn(CC(F)F)c2ccccc12 (stereo partly drawn) [Example 45, (1R,3R,5S)-8-azabicyclo[3.2.1]octan-3-yl 1-(2,2-difluoroethyl)-1H-indole-3-carboxylate, 2,2,2-trifluoroacetate] and O=C(OC1C[C@H]2COC[C@@H](C1)N2)c1cn(-c2nccs2)c2ccccc12 (stereo partly drawn) [Example 128, (1R,5S,7S)-3-oxa-9-azabicyclo[3.3.1]nonan-7-yl 1-(thiazol-2-yl)-1H-indole-3-carboxamide, 2,2,2-trifluoroacetate] are within 1.5-fold of each other in IC50: 3.09 nM for the first, 2.16 nM for the second.

Compared with “N-((1R,5S,7S)-3-oxa-9-azabicyclo[3.3.1]nonan-7-yl)-5-fluoro-1-(2,2,2-trifluoroethyl)-1H-indole-3-carboxamide 2,2,2-trifluoroacetic acid [Example 16]”, “(1R,3R,5S)-8-methyl-8-azabicyclo[3.2.1]octan-3-yl 1-(2,2-difluoroethyl)-1H-pyrrolo[2,3-b]pyridine-3-carboxylate 2,2,2-trifluoroacetate [Example 1]” is 1.5-fold lower in IC50: 3.25 nM for the first, 2.13 nM for the second.

Compared with CN1[C@@H]2CCC[C@H]1CC(NC(=O)c1cn(S(C)(=O)=O)c3ccc(F)cc13)C2 (stereo partly drawn) [Example 100, 5-fluoro-N-((1R,3R,5S)-9-methyl-9-azabicyclo[3.3.1]nonan-3-yl)-1-(methylsulfonyl)-1H-indole-3-carboxamide, 2,2,2-trifluoroacetate], CN1[C@@H]2CC[C@H]1CC(OC(=O)c1cn(CC(F)(F)F)c3ccccc13)C2 (stereo partly drawn) [Example 95, (1R,3R,5S)-8-methyl-8-azabicyclo[3.2.1]octan-3-yl 1-(2,2,2-trifluoroethyl)-1H-indole-3-carboxylate, 2,2,2-trifluoroacetate] is 14-fold lower in IC50: 12.8 nM for the first, 0.89 nM for the second. The second is the more potent here.

Cc1c(C(=O)OC2C[C@H]3CC[C@@H](C2)N3C)c2ccccc2n1CC(F)F (stereo partly drawn) [Example 73, (1R,3R,5S)-8-methyl-8-azabicyclo[3.2.1]octan-3-yl 1-(2,2-difluoroethyl)-2-methyl-1H-indole-3-carboxylate, 2,2,2-trifluoroacetate] and O=C(O[C@H]1C[C@H]2COC[C@@H](C1)N2)c1cn(-c2ncco2)c2ccccc12 [Example 177, (1R,5S,7s)-3-oxa-9-azabicyclo[3.3.1]nonan-7-yl 1-(oxazol-2-yl)-1H-indole-3-carboxylate, 2,2,2-trifluoroacetic acid salt] are within 1.5-fold of each other in IC50: 3.15 nM for the first, 3.22 nM for the second.

First: CN1C2CCC1CC(NC(=O)c1nn(S(C)(=O)=O)c3ccccc13)C2 [Example 62, N-((1R,3R,5S)-8-methyl-8-azabicyclo[3.2.1]octan-3-yl)-1-(methylsulfonyl)-1H-indazole-3-carboxamide, 2,2,2-trifluoroacetate]
Second: CN1[C@@H]2CCC[C@H]1CC(NC(=O)c1cn(CC(F)F)c3ncccc13)C2 (stereo partly drawn) [Example 77, 1-(2,2-difluoroethyl)-N-((1R,3R,5S)-9-methyl-9-azabicyclo[3.3.1]nonan-3-yl)-1H-pyrrolo[2,3-b]pyridine-3-carboxamide, 2,2,2-trifluoroacetate]
The IC50 of the first is 14-fold lower: 0.75 nM for the first, 10.5 nM for the second.

Going from CN1C2CCC1CC(OC(=O)c1nn(CCF)c3ccccc13)C2 [Example 57, (1R,3R,5S)-8-methyl-8-azabicyclo[3.2.1]octan-3-yl 1-(2-fluoroethyl)-1H-indazole-3-carboxylate, 2,2,2-trifluoroacetate] to CN1[C@@H]2CC[C@H]1C[C@@H](NC(=O)c1nn(CC(F)F)c3ccccc13)C2 [Example 90, 1-(2,2-difluoroethyl)-N-((1R,3R,5S)-8-methyl-8-azabicyclo-[3.2.1]octan-3-yl)-1H-indazole-3-carboxamide, 2,2,2-trifluoroacetate], the IC50 falls from > 1000 nM to 0.75 nM.

Compared with O=C(N[C@H]1CN2CCC1CC2)c1cn(CC(F)F)c2ncccc12 [Example 67, (R)-1-(2,2-difluoroethyl)-N-(quinuclidin-3-yl)-1H-pyrrolo[2,3-b]pyridine-3-carboxamide, 2,2,2-trifluoroacetate], CN1C2COCC1CC(NC(=O)c1cn(-c3nccs3)c3ncc(F)cc13)C2 [Example 162, 5-fluoro-N-((1R,5S,7s)-9-methyl-3-oxa-9-azabicyclo[3.3.1]nonan-7-yl)-1-(thiazol-2-yl)-1H-pyrrolo[2,3-b]pyridine-3-carboxamide, 2,2,2-trifluoroacetic acid salt] is lower in IC50: > 1000 nM for the first, 1.81 nM for the second. The second is the more potent here.

Compared with O=C(N[C@@H]1CN2CCC1CC2)c1cn(CC(F)F)c2ncccc12 [Example 116, (S)-1-(2,2-difluoroethyl)-N-(quinuclidin-3-yl)-1H-pyrrolo[2,3-b]pyridine-3-carboxamide, 2,2,2-trifluoroacetate], CN1C2COCC1CC(NC(=O)c1cn(CCF)c3ccccc13)C2 [Example 79, 1-(2-fluoroethyl)-N-((1R,5S,7S)-9-methyl-3-oxa-9-azabicyclo-[3.3.1]nonan-7-yl)-1H-indole-3-carboxamide, 2,2,2-trifluoroacetate] is lower in IC50: > 1000 nM for the first, 0.41 nM for the second.

Going from CN1[C@@H]2COC[C@H]1CC(NC(=O)c1cn(CC(F)(F)F)c3ccc(F)cc13)C2 (stereo partly drawn) [Example 112, 1-(2,2,2-trifluoroethyl)-5-fluoro-N-((1R,5S,7S)-9-methyl-d3-3-oxa-9-azabicyclo[3.3.1]nonan-7-yl)-1H-indole-3-carboxamide, 2,2,2-trifluoroacetate] to “N-((1R,5S,7S)-3-oxa-9-azabicyclo[3.3.1]nonan-7-yl)-5-fluoro-1-(2,2,2-trifluoroethyl)-1H-indole-3-carboxamide 2,2,2-trifluoroacetate [Example 17]”, the IC50 rises from 0.53 nM to 4.39 nM (8.3-fold). The first is the more potent here.

First: CN1C2COCC1CC(NC(=O)c1cn(-c3cncs3)c3ncccc13)C2 [Example 148, N-((1R,5S,7s)-9-methyl-3-oxa-9-azabicyclo[3.3.1]nonan-7-yl)-1-(thiazol-5-yl)-1H-pyrrolo[2,3-b]pyridine-3-carboxamide, 2,2,2-trifluoroacetic acid salt]
Second: CC(C)S(=O)(=O)n1cc(C(=O)OC2C[C@H]3COC[C@@H](C2)N3)c2cc(F)ccc21 (stereo partly drawn) [Example 54, (1R,5S,7S)-3-oxa-9-azabicyclo[3.3.1]nonan-7-yl 5-fluoro-1-(isopropylsulfonyl)-1H-indole-3-carboxylate, 2,2,2-trifluoroacetate]
The IC50 of the first is 14-fold lower: 0.4 nM for the first, 5.61 nM for the second. The first is the more potent here.

CN1C2COCC1CC(NC(=O)c1cn(CC(F)F)c3ncccc13)C2 [Example 64, 1-(2,2-difluoroethyl)-N-((1R,5S,7S)-9-methyl-3-oxa-9-azabicyclo[3.3.1]nonan-7-yl)-1H-pyrrolo[2,3-b]pyridine-3-carboxamide, 2,2,2-trifluoroacetate] showed an IC50 of 1.43 nM.
